Experimental data: patent US10596267B2, “Method and process for quantitative evaluation of pharmacokinetics, therapeutic effects and safety of delivery of drug compounds to the inner ear for treatment of auditory disease” (The Charles Stark Draper Laboratory, Inc., priority 2016, dated 2020)

Tested on: guinea pig cochleae
Experiment: Reciprocating inner ear delivery of DNQX by micropump via cochleostomy; CAP and DPOAE hearing measurements
Settings: pump infusion via cochleostomy at the basal turn
Method: Infusion began at t=0. A hearing threshold is the minimum sound pressure level (measured in dB SPL) required to generate a response. Data reported are threshold shifts, the change in threshold as compared to baseline. […] CAP amplitudes are also shown, with a legend that is on a log scale.
Reciprocating inner ear delivery and electronically-controlled dosing in a guinea pig model using a pump to infuse a drug via a cochleostomy (made at the basal turn) was evaluated. The drug reservoir was loaded with the glutamate receptor antagonist DNQX (which disrupts hair-cell-to-auditory-nerve synaptic transmission resulting in attenuation of compound action potentials (CAPs) generated in response to auditory stimuli). The molecular weight (232 Daltons) and physicochemical characteristics of DNQX make it a suitable model for evaluating the potential of other small molecule candidates for inner ear delivery. […] DPOAE responses from hair cells (which are not altered by DNQX) were monitored as a control for nonspecific effects.
In the experiments described herein, drug concentration was not measured directly, but was inferred by mapping the drug-mediated CAP inhibition along the length of the ST to calculate drug concentrations at a given location.

Which results are given for `O=[N+]([O-])c1cc2nc(O)c(O)nc2cc1[N+](=O)[O-]` [DNQX]?
DPOAE over time (control for nonspecific effects, mechanical damage or conductive hearing loss): lack of alterations in DPOAE over time; compound action potential (CAP) after initiation of drug delivery (tone-pip-evoked CAP): reduction in CAP
